In BindingDB's records for doi:10.1016/s0026-0495(96)90072-4 (Sandoz Pharma, 1996):
Positions of bridges follow the written chain, without caps; N, C: chain ends. Non-standard residues stand in square brackets, D forms with d. Residues, ends and D or L forms follow the SMILES beside them. *: point of attachment. d1Nal = N[C@H](Cc1cccc2ccccc12)C(=O)O; Asu = N[C@@H](CCCCCC(=O)O)C(=O)O; Nphe = O=C(O)CNCc1ccccc1; Ahp = NCCCCCCC(=O)O; Bn = c1ccc(C*)cc1

What was measured:
[1] = molecular target: Somatostatin receptor type 2 (Homo sapiens, UniProt P30874)
[2] = molecular target: Somatostatin receptor type 1 (Homo sapiens, UniProt P30872)
[3] = molecular target: Somatostatin receptor type 4 (Homo sapiens, UniProt P31391)
[4] = molecular target: Somatostatin receptor type 3 (Homo sapiens, UniProt P32745)
[5] = molecular target: Somatostatin receptor type 5 (Homo sapiens, UniProt P35346)
Somatostatin receptor type 5, sequence (P35346 whole entry): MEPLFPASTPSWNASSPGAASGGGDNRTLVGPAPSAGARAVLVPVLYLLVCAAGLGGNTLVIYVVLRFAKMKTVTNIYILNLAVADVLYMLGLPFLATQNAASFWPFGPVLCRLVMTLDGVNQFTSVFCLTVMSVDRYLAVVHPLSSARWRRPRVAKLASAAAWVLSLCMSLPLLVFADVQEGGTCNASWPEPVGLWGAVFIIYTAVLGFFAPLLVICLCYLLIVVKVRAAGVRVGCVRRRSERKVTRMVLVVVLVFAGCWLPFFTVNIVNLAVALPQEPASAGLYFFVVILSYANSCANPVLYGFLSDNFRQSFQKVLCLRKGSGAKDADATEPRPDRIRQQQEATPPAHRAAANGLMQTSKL

Somatostatin receptor type 1, sequence (P30872 whole entry): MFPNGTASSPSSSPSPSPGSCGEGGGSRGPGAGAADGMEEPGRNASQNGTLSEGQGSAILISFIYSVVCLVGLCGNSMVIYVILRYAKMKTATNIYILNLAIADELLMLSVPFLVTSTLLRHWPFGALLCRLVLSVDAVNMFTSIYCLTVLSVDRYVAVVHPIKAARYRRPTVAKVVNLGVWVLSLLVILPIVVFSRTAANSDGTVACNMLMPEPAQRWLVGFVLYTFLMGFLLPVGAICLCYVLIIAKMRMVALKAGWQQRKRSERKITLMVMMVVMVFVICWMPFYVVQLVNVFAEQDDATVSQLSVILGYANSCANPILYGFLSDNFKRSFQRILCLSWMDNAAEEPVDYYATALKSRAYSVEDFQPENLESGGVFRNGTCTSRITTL
Somatostatin receptor type 3, sequence (P32745 whole entry): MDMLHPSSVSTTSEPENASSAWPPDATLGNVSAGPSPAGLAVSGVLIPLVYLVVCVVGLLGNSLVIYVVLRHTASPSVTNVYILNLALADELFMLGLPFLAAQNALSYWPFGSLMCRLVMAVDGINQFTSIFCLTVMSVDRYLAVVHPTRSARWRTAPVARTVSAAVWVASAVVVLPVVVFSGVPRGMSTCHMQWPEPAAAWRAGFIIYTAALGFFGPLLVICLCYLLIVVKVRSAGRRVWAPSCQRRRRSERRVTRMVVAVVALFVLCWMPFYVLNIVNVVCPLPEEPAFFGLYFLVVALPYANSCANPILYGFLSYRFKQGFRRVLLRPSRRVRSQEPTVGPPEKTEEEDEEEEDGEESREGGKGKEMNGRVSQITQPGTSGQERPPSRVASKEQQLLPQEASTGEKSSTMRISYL
Somatostatin receptor type 2, sequence (P30874 whole entry): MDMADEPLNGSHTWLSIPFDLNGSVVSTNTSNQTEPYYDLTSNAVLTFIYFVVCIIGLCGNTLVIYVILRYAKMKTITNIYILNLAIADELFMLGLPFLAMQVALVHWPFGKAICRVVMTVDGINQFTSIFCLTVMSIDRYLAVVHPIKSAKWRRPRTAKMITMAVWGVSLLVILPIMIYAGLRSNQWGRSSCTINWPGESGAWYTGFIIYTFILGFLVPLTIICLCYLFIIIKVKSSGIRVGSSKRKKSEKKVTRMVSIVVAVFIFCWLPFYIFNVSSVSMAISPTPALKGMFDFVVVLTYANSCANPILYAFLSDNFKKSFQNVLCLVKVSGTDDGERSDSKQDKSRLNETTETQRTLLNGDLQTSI
Somatostatin receptor type 4, sequence (P31391 whole entry): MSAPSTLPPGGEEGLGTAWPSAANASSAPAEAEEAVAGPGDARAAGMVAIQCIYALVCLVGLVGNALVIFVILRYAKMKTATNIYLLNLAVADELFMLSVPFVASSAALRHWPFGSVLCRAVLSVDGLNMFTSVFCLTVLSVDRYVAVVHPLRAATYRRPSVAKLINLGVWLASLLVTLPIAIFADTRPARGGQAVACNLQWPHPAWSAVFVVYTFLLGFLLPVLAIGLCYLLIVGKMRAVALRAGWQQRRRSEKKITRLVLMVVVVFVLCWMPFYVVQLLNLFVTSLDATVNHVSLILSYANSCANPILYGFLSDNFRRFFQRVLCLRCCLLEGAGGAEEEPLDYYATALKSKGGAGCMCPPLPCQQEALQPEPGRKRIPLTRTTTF

In the case of `C[C@@H](O)[C@@H]1NC(=O)[C@H](CCCCN)NC(=O)[C@@H](Cc2c[nH]c3ccccc23)NC(=O)[C@H](Cc2ccccc2)NC(=O)[C@@H]2CCCN2C(=O)[C@H](Cc2ccccc2)NC1=O` (cyclo(PF[dW]KTF)), the Ki [1] is reported as 0.63 nM, the Ki [2] is reported as 631 nM and the Ki [3] is reported as 100 nM. The Ki [4] was 126 nM and the Ki [5] was 39.8 nM.

`CC(C)[C@@H]1NC(=O)[C@H](CCCCN)NC(=O)[C@@H](Cc2c[nH]c3ccccc23)NC(=O)[C@H](Cc2ccc(O)cc2)NC(=O)[C@@H](NC(=O)[C@H](N)Cc2ccc3ccccc3c2)CSSC[C@@H](C(=O)N[C@H](C(N)=O)[C@@H](C)O)NC1=O` [3-(2-Naphtyl)-D-Ala-L-Cys(1)-L-Tyr-D-Trp-L-Lys-L-Val-L-Cys(1)-L-Thr-NH2] showed a Ki [1] of 0.5 nM and a Ki [4] of 63.1 nM.

Work on `CC(C)[C@H](NC(=O)[C@H](CCCCN)NC(=O)[C@@H](Cc1c[nH]c2ccccc12)NC(=O)[C@H](Cc1ccc(O)cc1)NC(=O)[C@H](Cc1ccccc1)NC(=O)[C@H](N)Cc1ccccc1)C(=O)N[C@@H](Cc1ccccc1)C(=O)N[C@H](Cc1cccc2ccccc12)C(N)=O` [BIM 23056] (H-[dF]FY[dW]KVF[d1Nal]-NH2) yielded a Ki [1] of 200 nM, a Ki [2] of 100 nM and a Ki [3] of 100 nM. It also gave a Ki [4] of 100 nM and a Ki [5] of 12.6 nM.

Molecule `CC(C)[C@@H]1NC(=O)[C@H](CCCCN)NC(=O)[C@@H](Cc2c[nH]c3ccccc23)NC(=O)[C@H](Cc2ccc(O)cc2)NC(=O)[C@@H](NC(=O)[C@H](N)Cc2ccccc2)CSSC[C@@H](C(=O)N[C@@H](Cc2c[nH]c3ccccc23)C(N)=O)NC1=O` [CAS_71306] (H-[dF]CY[dW]KVCW-NH2; disulfide 2-7) has a Ki [1] of 0.07 nM.

`C[C@@H](O)[C@H](NC(=O)[C@H](Cc1ccccc1)NC(=O)[C@@H](NC(=O)[C@H](CCCCN)NC(=O)[C@@H](Cc1c[nH]c2ccccc12)NC(=O)[C@H](Cc1ccccc1)NC(=O)[C@H](Cc1ccccc1)NC(=O)[C@H](N)Cc1ccccc1)[C@@H](C)O)C(N)=O` [CAS_133073-82-2] (H-[dF]FF[dW]KTFT-NH2) showed a Ki [1] of 7.94 nM, a Ki [2] of 6.3 nM and a Ki [3] of 15.8 nM. The Ki [4] was 1.99 nM and the Ki [5] was 1.58 nM.

`C[C@@H](O)[C@@H]1NC(=O)[C@H](Cc2ccc(O)cc2)NC(=O)[C@H]([C@@H](C)O)NC(=O)[C@H](CCCCN)NC(=O)[C@H](Cc2c[nH]c3ccccc23)NC(=O)[C@H](Cc2ccccc2)NC(=O)[C@H](Cc2ccccc2)NC(=O)[C@H](CC(N)=O)NC(=O)[C@H](CCCCN)NC(=O)CCCCC[C@@H](C(=O)O)NC(=O)[C@H](CO)NC1=O` [CGP-23996] (KNFFWKTYTS[Asu]-OH; lactam N-11) was tested, and the Ki [1] was 0.79 nM, the Ki [2] was 3.98 nM and the Ki [3] was 1.99 nM. The Ki [4] was 0.39 nM and the Ki [5] was 2.51 nM.

`C[C@@H](O)[C@@H]1NC(=O)[C@H](CCCCN)NC(=O)[C@@H](Cc2c[nH]c3ccccc23)NC(=O)[C@H](Cc2c[nH]c3ccccc23)NC(=O)[C@H](Cc2ccccc2)NC(=O)CCCCCCNC(=O)[C@H](Cc2ccccc2)NC1=O` [L-362855] (cyclo([Ahp]FW[dW]KTF)) showed a Ki [1] of 0.79 nM, a Ki [2] of 100 nM and a Ki [3] of 100 nM. The Ki [4] was 6.3 nM and the Ki [5] was 0.1 nM.

For `CC(=O)N(CC(=O)NC1CSSCC(C(=O)NC(Cc2c[nH]c3ccccc23)C(N)=O)NC(=O)C(C(C)C)NC(=O)C(CCCCN)NC(=O)C(Cc2c[nH]c3ccccc23)NC(=O)C(Cc2ccc(O)cc2)NC1=O)Cc1ccccc1` (stereo not drawn) [RC 160II] (Ac-[Nphe]CYWKVCW-NH2; disulfide 2-7; configuration not given here), the Ki [1] was 1.58 nM, the Ki [2] was 100 nM and the Ki [3] was 100 nM. For the same molecule, the Ki [4] was 100 nM and the Ki [5] was 5.01 nM.

Molecule `CSCC[C@@H]1NC(=O)[C@@H](NC(=O)[C@H](CC(N)=O)NC(=O)[C@H](CC(C)C)NC(=O)[C@@H]2CCCN2C(=O)[C@H](CCCCN)NC(=O)[C@H](CO)NC(=O)[C@@H](NC(=O)[C@@H](NC(=O)[C@@H](NC(=O)[C@H](CC(N)=O)NC(=O)[C@@H](N)CC(=O)O)[C@@H](C)O)C(C)C)[C@@H](C)O)CSSC[C@@H](C(=O)O)NC(=O)[C@H](C)NC(=O)[C@H]([C@@H](C)O)NC(=O)[C@H](CCCN=C(N)N)NC(=O)[C@H](CO)NC(=O)[C@H](CCCCN)NC(=O)[C@H](Cc2c[nH]c3ccccc23)NC(=O)[C@H](Cc2ccccc2)NC(=O)[C@H](Cc2ccc(O)cc2)NC(=O)[C@H](CC(N)=O)NC1=O` [SS-22] (H-DNTVTSKPLNCMNYFWKSRTAC-OH; disulfide 11-22) has a Ki [1] of 126 nM, a Ki [2] of 794 nM and a Ki [3] of 100 nM. The Ki [4] was 100 nM and the Ki [5] was 12.6 nM.

With `CSCC[C@H](NC(=O)[C@H](C)NC(=O)[C@@H]1CCCN1C(=O)[C@H](CC(N)=O)NC(=O)[C@@H](N)CO)C(=O)N[C@@H](C)C(=O)N1CCC[C@H]1C(=O)N[C@@H](CCCN=C(N)N)C(=O)N[C@@H](CCC(=O)O)C(=O)N[C@@H](CCCN=C(N)N)C(=O)N[C@@H](CCCCN)C(=O)N[C@@H](C)C(=O)NCC(=O)N[C@H]1CSSC[C@@H](C(=O)O)NC(=O)[C@H](CO)NC(=O)[C@H]([C@@H](C)O)NC(=O)[C@H](Cc2ccccc2)NC(=O)[C@H]([C@@H](C)O)NC(=O)[C@H](CCCCN)NC(=O)[C@H](Cc2c[nH]c3ccccc23)NC(=O)[C@H](Cc2ccccc2)NC(=O)[C@H](Cc2ccccc2)NC(=O)[C@H](CC(N)=O)NC(=O)[C@H](CCCCN)NC1=O` [SS-25] (H-SNPAMAPRERKAGCKNFFWKTFTSC-OH; disulfide 14-25) the Ki [1] was 0.31 nM, the Ki [2] was 0.79 nM and the Ki [3] was 1 nM. For the same molecule, the Ki [4] was 0.5 nM and the Ki [5] was 0.19 nM.

In the case of `C[C@@H](OCc1ccccc1)[C@@H]1NC(=O)[C@H](CCCCN)NC(=O)[C@@H](Cc2c[nH]c3ccccc23)NC(=O)[C@H](Cc2ccccc2)NC(=O)CCCCCCNC1=O` [c[Aha-Phe-D-Trp-Lys-Thr(Bzl)]] (cyclo([Ahp]F[dW]KT(Bn))), the Ki [1] is reported as 2510 nM, the Ki [2] is reported as 398 nM and the Ki [3] is reported as 3160 nM. For the same molecule, the Ki [4] was 398 nM and the Ki [5] was 316 nM.
